Patent publication US11672868B2, “Bicyclic peptide ligands specific for MT1-MMP” (priority 2014, dated 2023)
Like-named read-outs stand apart in the source and are kept apart here. Marks after values point to notes of the source that are not given here. Numbered stars: 1 amine (or outer) side, 2 acyl side, 3 side chain; on linkers, the order of the positions; unused ones are H or OH. Bridge positions count the residues as written; N and C are the ends. Square brackets hold non-standard residues; d marks the D form. Peptide text beside a SMILES is read from it. * marks the point of attachment. X1 = COc1cc2cc(c1Cl)N(C)C(=O)C[C@H](OC(=O)[C@H](C)N(C)C(=O)CCC(C)(C)SSCCCC(=O)*)[C@]1(C)O[C@H]1[C@H](C)[C@@H]1C[C@@](O)(NC(=O)O1)[C@H](OC)/C=C/C=C(\C)C2; X2 = COc1cc2cc(c1Cl)N(C)C(=O)C[C@H](OC(=O)[C@H](C)N(C)C(=O)CCC(C)SSC(C)CCC(=O)*)[C@]1(C)O[C@H]1[C@H](C)[C@@H]1C[C@@](O)(NC(=O)O1)[C@H](OC)/C=C/C=C(\C)C2; 1Nal = N[C@@H](Cc1cccc2ccccc12)C(=O)O; TBMB = c1c(C[*:1])cc(C[*:3])cc1C[*:2]; Tle = CC(C)(C)[C@H](N)C(=O)O; βAla = NCCC(=O)O; Sar = CNCC(=O)O

Experiments:
[1] = molecular target: MT1-MMP hemopexin domain; assay: FP competition, species cross-reactivity (dog); format: binding; settings: Table 13
Excerpt: (§1) Here, a pre-formed complex of PEX with the fluorescent PEX-binding tracer is titrated with free, non-fluoresceinated bicyclic peptide. Since all 17-69-based peptides are expected to bind at the same site, the titrant will displace the fluorescent tracer from PEX. Dissociation of the complex can be measured quantitatively, and the Kd of the competitor (titrant) to the target protein determined. The advantage of the competition method is that the affinities of non-fluoresceinated bicyclic peptides can be determined accurately and rapidly.
(§2) Subsequently, the non-fluorescent competitor bicyclic peptide (usually just the bicycle core sequence) is titrated, such that it displaces the fluorescent tracer from the target protein. The displacement of the tracer is measured and associated with a drop in fluorescence polarisation. The drop in fluorescence polarisation is proportional to the fraction of target protein bound with the non-fluorescent titrant, and thus is a measure of the affinity of titrant to target protein.
(§3) The raw data is fit to the analytical solution of the cubic equation that describes the equilibria between fluorescent tracer, titrant, and binding protein. The fit requires the value of the affinity of fluorescent tracer to the target protein, which can be determined separately by direct binding FP experiments (see previous section). […]

[2] = Plasma stability, quantitative LC-MS (Method #2); format: in vitro ADME, human; settings: for half-life at 4 μM: read-out: t1/2 (hrs) (human plasma) (converted)
Experimental: […] […] Prior to LC-MS analysis, samples were defrosted, and mixed with 3 volumes (here, 120 μL) of 1:1 acetonitrile/MeOH water. The milky suspensions were centrifuged for 30 min at 13000 rpm, and peptide-containing supernatants were quantitated for doubly/triply charged species and MS/MS fragments thereof using a Waters Xevo TQ-D instrument, while using a plasma extracted standard curve of the same peptides as a reference. The half-life of degradation in plasma was used to assess the comparative stability of the molecules.

[3] = Plasma stability, quantitative LC-MS (Method #2); format: in vitro ADME, mouse; settings: for half-life at 4 μM: mouse, quantitative LC-MS, incubation up to 24 hrs, 4 μM BDC, read-out: t1/2 (hrs) (mouse plasma) (converted)
Experimental: To obtain plasma stability of bicyclic peptides quantitatively, peptide stock solutions (200 μM in DMSO) were mixed with plasma (human or mouse), such that final concentrations were 10 μM. 40 μL samples were taken periodically up to 8 hrs and frozen at −80° C. Prior to LC-MS analysis, samples were defrosted, and mixed with 3 volumes (here, 120 μL) of 1:1 acetonitrile/MeOH water. The milky suspensions were centrifuged for 30 min at 13000 rpm, and peptide-containing supernatants were quantitated for doubly/triply charged species and MS/MS fragments thereof using a Waters Xevo TQ-D instrument, while using a plasma extracted standard curve of the same peptides as a reference. The half-life of degradation in plasma was used to assess the comparative stability of the molecules.

[4] = Plasma stability, quantitative LC-MS; format: in vitro ADME; settings: rat, incubation up to 24 hrs, 4 μM BDC, read-out: t1/2 (hrs) (rat plasma) (converted)
Experimental: (§4) The four BDCs were assessed for several in vitro parameters such as retention of potency to the human MT1-MMP hemopexin domain, stability in ex vivo mouse, rat and human plasma, and stability to reducing agents such as dithiothreitol.

[5] = molecular target: T1, MT1-MMP hemopexin domain (PEX) (Homo sapiens, UniProt P50281); assay: Competition assay using fluorescence polarisation; format: binding
T1 construct: residues Cys319-Gly511 from the human gene; His6 (N); made in house; host or cells: HEK293 (transient, pEXPR-IBA42 vector)
Excerpt: as §1, §2
The raw data is fit to the analytical solution of the cubic equation that describes the equilibria between fluorescent tracer, titrant, and binding protein. The fit requires the value of the affinity of fluorescent tracer to the target protein, which can be determined separately by direct binding FP experiments (see previous section).

[6] = molecular target: T2, MT1-MMP hemopexin domain (Mus musculus, UniProt P53690); assay: FP competition, species cross-reactivity (mouse); format: binding; settings: Table 13
T2 construct: MT1-MMP hemopexin domain derived from other species
Excerpt: as §1, §2, §3

[7] = Stability to reducing agent dithiothreitol (DTT); format: physicochemical; settings: Bicycle Drug Conjugates, quantitative LC-MS
Experimental: as §4

[8] = tested on: human lung squamous cell carcinoma line EBC-1; assay: Efficacy in EBC-1 xenograft mice; format: in vivo, mouse; settings: for efficacy in EBC-1 xenograft / tolerability / body weight: EBC-1 xenograft; for ED50, effective dose to achieve 50% tumour AUC reduction: mouse bearing EBC-1 tumours, ± 95% confidence limit
Experimental: In vivo efficacy of BT17BDC-17, BT17BDC-18, BT17BDC-19 and BT17BDC-20 All BDCs containing the stabilised bicycle core sequence were tested for their efficacies in in vivo mouse xenograft models, using the human lung squamous cell carcinoma line EBC-1.
The area under the curve (AUC) of tumour volume over time and BDC was taken and plotted against the corresponding dose group (FIG. 13).

[9] = Kellogg et al (2011), cited from earlier work; for fold reduction in sensitivity to a reducing agent such as dithiothreitol: in the antibody drug conjugate context, compared to the non-hindered disulphide; for Relative Stability to DTT (ADC): values relate to antibody drug conjugates containing the same disulphide linker
[10] = human, human plasma, quantitative LC-MS, incubation up to 24 hrs, 4 μM BDC

Row | SMILES | Kd [1] [nM] | half-life at 4 μM [2, 10] [h] | half-life at 4 μM ([3]; mouse plasma) [h] | half-life at 4 μM ([4]; rat plasma (ex vivo)) [h] | Relative Stability to DTT (BDC) [7] | half-life at 4 μM ([3]; plasma) [h] | half-life at 4 μM ([4]; plasma) [h] | efficacy in EBC-1 xenograft [8] | tolerability / body weight [8] | ED50, effective dose to achieve 50% tumour AUC reduction [8] | fold reduction in sensitivity to a reducing agent such as dithiothreitol [9] [fold] | Relative Stability to DTT (ADC) [9] | also measured
1 | CC[C@H](C)[C@@H]1NC(=O)[C@H](CC(=O)O)NC(=O)[C@H](Cc2ccc(O)cc2)NC(=O)[C@H](Cc2ccccc2)NC(=O)[C@H](CC(=O)O)NC(=O)[C@H](CCC(=O)O)NC(=O)[C@@H]2CSCc3cc(cc(c3)CSC[C@H](NC(=O)[C@H](C)NC(=O)CN(C)C(=O)CN(C)C(=O)CN(C)C(=O)CN(C)C(=O)CN(C)C(=O)CN(C)C(=O)CN(C)C(=O)CN(C)C(=O)CN(C)C(=O)CN(C)C(=O)CN)C(=O)N[C@@H](Cc3ccc(O)cc3)C(=O)N[C@@H](CC(N)=O)C(=O)N[C@@H](CCC(=O)O)C(=O)N[C@@H](Cc3ccccc3)C(=O)NCC(=O)N2)CSC[C@@H](C(N)=O)NC1=O [17-69-07-N219, G-Sar10-A-(17-69-07)] (H-G[Sar][Sar][Sar][Sar][Sar][Sar][Sar][Sar][Sar][Sar]ACYNEFGCEDFYDIC-NH2; linker 13-19-26 via TBMB; C-terminus assumed) | 0.9 | 30.3 ± 4.7 | 3.9 ± 0.3 | 3.7 | – | – | – | – | – | – | – | – | half-life at 10 μM ([2]; human, human plasma, 37° C., sentence prints mouse plasma, read-out: half-life of the peptide in plasma (FIG. 3B, human plasma stability) (converted)): 6 h; half-life at 10 μM ([3]; ex vivo mouse plasma at 37° C., Method #2 (FIG. 1, FIG. 3A), read-out: half-life of the peptide in mouse plasma (converted)): 6 h; Kd ([5]; Table 12, molecules selected for plasma stability assessment, read-out: Kd): 0.82 ± 0.09 nM; Kd ([5]; Table 13, Human/cyno MT1-MMP hemopexin domain, FP competition, read-out: Human/cyno (Kd)): 0.82 nM; Kd ([5]; Table 16, FP competition, footnote e: 17-69-07-N004 as tracer, read-out: Kd (nM) (Hemopexin domain)): 0.82 ± 0.09 nM; Kd ([5]; read-out: Kd, affinity to PEX / MT1-MMP): 0.82 nM
2 | C[C@H](NC(=O)CN(C)C(=O)CN(C)C(=O)CN(C)C(=O)CN(C)C(=O)CN(C)C(=O)CN(C)C(=O)CN(C)C(=O)CN(C)C(=O)CN(C)C(=O)CN(C)C(=O)CCN)C(=O)N[C@H]1CSCc2cc3cc(c2)CSC[C@H](NC(=O)[C@@H](C)NC(=O)[C@H](Cc2cccc4ccccc24)NC(=O)[C@H](CCC(=O)O)NC(=O)[C@H](CC(N)=O)NC(=O)[C@@H](C)NC1=O)C(=O)N[C@@H](CCC(=O)O)C(=O)N[C@@H](CC(=O)O)C(=O)N[C@@H](Cc1ccccc1)C(=O)N[C@@H](Cc1ccc(O)cc1)C(=O)N[C@@H](CC(=O)O)C(=O)N[C@@H](C(C)(C)C)C(=O)N[C@H](C(N)=O)CSC3 [17-69-07-N241, bAla-Sar10-A-(17-69-07) D-Ala1 1Nal4 D-Ala5 tBuGly11] (H-[βAla][Sar][Sar][Sar][Sar][Sar][Sar][Sar][Sar][Sar][Sar]AC[dA]NE[1Nal][dA]CEDFYD[Tle]C-NH2; linker 13-19-26 via TBMB; C-terminus assumed) | 1.4 | > 36 | > 36 | > 36 | – | – | – | – | – | – | – | – | Kd [6]: 0.63 nM
3 | COc1cc2cc(c1Cl)N(C)C(=O)C[C@H](OC(=O)[C@H](C)N(C)C(=O)CCC(C)(C)SSCCCC(=O)NCCC(=O)N(C)CC(=O)N(C)CC(=O)N(C)CC(=O)N(C)CC(=O)N(C)CC(=O)N(C)CC(=O)N(C)CC(=O)N(C)CC(=O)N(C)CC(=O)N(C)CC(=O)N[C@@H](C)C(=O)N[C@H]1CSCc3cc4cc(c3)CSC[C@H](NC(=O)[C@@H](C)NC(=O)[C@H](Cc3cccc5ccccc35)NC(=O)[C@H](CCC(=O)O)NC(=O)[C@H](CC(N)=O)NC(=O)[C@@H](C)NC1=O)C(=O)N[C@@H](CCC(=O)O)C(=O)N[C@@H](CC(=O)O)C(=O)N[C@@H](Cc1ccccc1)C(=O)N[C@@H](Cc1ccc(O)cc1)C(=O)N[C@@H](CC(=O)O)C(=O)N[C@@H](C(C)(C)C)C(=O)N[C@H](C(N)=O)CSC4)[C@]1(C)O[C@H]1[C@H](C)[C@@H]1C[C@@](O)(NC(=O)O1)[C@H](OC)/C=C/C=C(\C)C2 [BT17BDC-19] ({X1-βAla}-[Sar][Sar][Sar][Sar][Sar][Sar][Sar][Sar][Sar][Sar]AC[dA]NE[1Nal][dA]CEDFYD[Tle]C-NH2; linker 12-18-25 via TBMB) | – | – | – | – | 30 | > 36 | > 36 | efficacious | well tolerated at efficacious doses | 3.1 ± 1.6^b mg/kg | 14 | 14 | half-life at 4 μM ([2]; human, plasma, quantitative LC-MS, incubation up to 24 hrs, 4 μM BDC): > 14 h; t1/2 (hrs) (human plasma) ([2]; quantitative LC-MS, incubation up to 24 hrs, 4 μM BDC): 23.5 ± 4.1 h
4 | COc1cc2cc(c1Cl)N(C)C(=O)C[C@H](OC(=O)[C@H](C)N(C)C(=O)CCC(C)SSC(C)CCC(=O)NCCC(=O)N(C)CC(=O)N(C)CC(=O)N(C)CC(=O)N(C)CC(=O)N(C)CC(=O)N(C)CC(=O)N(C)CC(=O)N(C)CC(=O)N(C)CC(=O)N(C)CC(=O)N[C@@H](C)C(=O)N[C@H]1CSCc3cc4cc(c3)CSC[C@H](NC(=O)[C@@H](C)NC(=O)[C@H](Cc3cccc5ccccc35)NC(=O)[C@H](CCC(=O)O)NC(=O)[C@H](CC(N)=O)NC(=O)[C@@H](C)NC1=O)C(=O)N[C@@H](CCC(=O)O)C(=O)N[C@@H](CC(=O)O)C(=O)N[C@@H](Cc1ccccc1)C(=O)N[C@@H](Cc1ccc(O)cc1)C(=O)N[C@@H](CC(=O)O)C(=O)N[C@@H](C(C)(C)C)C(=O)N[C@H](C(N)=O)CSC4)[C@]1(C)O[C@H]1[C@H](C)[C@@H]1C[C@@](O)(NC(=O)O1)[C@H](OC)/C=C/C=C(\C)C2 (stereo partly drawn) [BT17BDC-20] ({X2-βAla}-[Sar][Sar][Sar][Sar][Sar][Sar][Sar][Sar][Sar][Sar]AC[dA]NE[1Nal][dA]CEDFYD[Tle]C-NH2; linker 12-18-25 via TBMB) | – | – | – | – | 93 | > 36 | 34 ± 4 | not efficacious | tolerated based on constant weight | 22 ± 13^b mg/kg | 170 | 170 | –
